Reference: US20250059187A1, “COVALENTLY BINDING INHIBITORS OF G12S, G12D AND/OR G12E MUTANTS OF K-RAS GTPASE” (The Regents of the University of California, priority 2021, published 2025)

What was measured:
Format in all cases: binding
wild type K-Ras [1] = biological target: T1, wild type K-Ras (Homo sapiens, UniProt P01116); assay: Covalent modification of test protein after incubation with compound; details: 24-h incubation with 100 μM compound at 23° C. at pH 7.5
T1 construct: human K-Ras (wildtype, aa 1-169); 6xHis tag + TEV cleavage site (N, cleaved yes); made in house; host or cells: E. coli BL21(DE3)

K-Ras G12D = biological target: T2, K-Ras G12D (Homo sapiens, UniProt P01116, G12D); assay: as above; details: 24-h incubation with 100 μM compound at 23° C. at pH 7.5
T2 construct: human K-Ras (G12D, aa 1-169); 6xHis tag + TEV cleavage site (N, cleaved yes); made in house; host or cells: E. coli BL21(DE3)

K-Ras(G12S) = K-Ras(G12S) (Homo sapiens, UniProt P01116, G12S); assay: Covalent modification of recombinant K-Ras(G12S) by whole-protein mass spectrometry; parameters: human K-Ras (G12S, aa 1-169); 6xHis tag + TEV cleavage site (N, cleaved yes); made in house; host or cells: E. coli BL21(DE3); details: 23° C.; for % covalent modification of K-Ras G12S: 24-h incubation, 100 μM compound, pH 7.5
Protocol: (§1) Test compounds were prepared as 100× stock solutions in DMSO. K-Ras proteins were diluted with SEC Buffer (20 mM HEPES 7.5, 150 mM NaCl, 1 mM MgCl2) to 400 nM or 1 μM. In a typical reaction, 0.5 μL 100× compound stock was mixed with 50 μL diluted K-Ras protein, and the resulting mixture was incubated for the desired amount of time. The extent of modification was assessed by electrospray mass spectrometry using a Waters Xevo G2-XS system equipped with an Acquity UPLC BEH C4 1.7 μm column. […] For kinetic measurements, a 2× compound solution was first prepared in SEC Buffer, which was then mixed with 400 nM K-Ras(G12S) protein at 1:1 (v/v) ratio. Injection time stamps were used to calculate elapsed time.
as §1, with “K-Ras(G12D)” for “K-Ras(G12S)”

K-Ras G12E = biological target: T3, K-Ras G12E (Homo sapiens, UniProt P01116, G12E); assay: Covalent modification of test protein after incubation with compound; details: 24-h incubation with 100 μM compound at 23° C. at pH 7.5
T3 construct: human K-Ras (G12E, aa 1-169); 6xHis tag + TEV cleavage site (N, cleaved yes); made in house; host or cells: E. coli BL21(DE3)

wild type K-Ras [2] = biological target: T1, wild type K-Ras; assay: Covalent modification of recombinant wild-type K-Ras by whole-protein mass spectrometry; details: 23° C.; for % covalent modification of wild type K-Ras: 24-h incubation, 100 μM compound, pH 7.5
Protocol: (§2) Test compounds were prepared as 100× stock solutions in DMSO. K-Ras proteins were diluted with SEC Buffer (20 mM HEPES 7.5, 150 mM NaCl, 1 mM MgCl2) to 400 nM or 1 μM. In a typical reaction, 0.5 μL 100× compound stock was mixed with 50 μL diluted K-Ras protein, and the resulting mixture was incubated for the desired amount of time. The extent of modification was assessed by electrospray mass spectrometry using a Waters Xevo G2-XS system equipped with an Acquity UPLC BEH C4 1.7 μm column. The mobile phase was a linear gradient of 5-95% acetonitrile/water+0.05% formic acid. For kinetic measurements, a 2× compound solution was first prepared in SEC Buffer, which was then mixed with 400 nM K-Ras(G12S) protein at 1:1 (v/v) ratio. Injection time stamps were used to calculate elapsed time.
as §2, with “K-Ras(G12D)” for “K-Ras(G12S)”

| SMILES | % covalent modification of wild type K-Ras (wild type K-Ras [1]) | % covalent modification of K-Ras G12D (K-Ras G12D) | covalent reaction with K-Ras(G12S)·GDP (K-Ras(G12S); 10 μM compound) | % covalent modification of K-Ras G12S (K-Ras(G12S)) | % covalent modification of K-Ras G12E (K-Ras G12E) | covalent adducts with wild-type K-Ras protein (wild type K-Ras [2]; 10 μM compound, 4 μM protein) | % covalent modification of wild type K-Ras (wild type K-Ras [2]) |
| --- | --- | --- | --- | --- | --- | --- | --- |
| CN1CCC[C@H]1COc1nc2c(c(N3CCC4OC(=O)C4C3)n1)CCN(c1cccc3cccc(Cl)c13)C2 (stereo partly shown) [2′] | 0% | 6.0% | did not yield any covalent adduct | 23.0% | 7.0% | neither of these compounds formed covalent adducts | 0% |
| C[C@@H]1C(=O)O[C@H]1C(=O)N1[C@@H]2CC[C@H]1CN(c1nc(OCC34CCCN3CCC4)nc3c(F)c(-c4cccc5cccc(Cl)c45)ncc13)C2 [(2R, 3S)-3] | 0% | 100% |  |  |  |  |  |
| CC(C)[C@@H]1C(=O)O[C@H]1C(=O)N1[C@@H]2CC[C@H]1CN(c1nc(OCC34CCCN3CCC4)nc3c(F)c(-c4cccc5cccc(Cl)c45)ncc13)C2 [(2R, 3S)-4] | 0% | 100% |  |  |  |  |  |
| C#Cc1cccc2cccc(-c3ncc4c(N5C[C@H]6CC[C@@H](C5)N6C(=O)[C@@H]5OC(=O)[C@H]5C(C)C)nc(OCC56CCCN5CCC6)nc4c3F)c12 [(2R, 3S)-5] | 0% | 100% |  |  | 0% |  |  |
| C#Cc1c(F)ccc2cc(O)cc(-c3ncc4c(N5C[C@H]6CC[C@@H](C5)N6C(=O)[C@@H]5OC(=O)[C@H]5C(C)C)nc(OC[C@@]56CCCN5C[C@H](F)C6)nc4c3F)c12 [(2R, 3S)-6] | 0% | 100% |  |  | 0% |  |  |
| O=C1C[C@H](C(=O)N2[C@@H]3CC[C@H]2CN(c2nc(OCC45CCCN4CCC5)nc4c(F)c(-c5cccc6cccc(Cl)c56)ncc24)C3)O1 [(R)-2] | 0% | 100% |  |  |  |  |  |
| Cc1ccc2[nH]ncc2c1-c1cc2ncnc(N3CC(C(=O)N[C@H]4COC4=O)C3)c2cc1Cl [Compound 03-099] | 18.6% | 23.4% |  |  | 16.8% |  |  |
| Cc1ccc2[nH]ncc2c1-c1cc2ncnc(N3CC(C(=O)N[C@@H]4COC4=O)C3)c2cc1Cl [Compound 03-100] | 22.6% | 17.7% |  |  | 18.5% |  |  |
| O=C1O[C@@H]2CCN(c3ncnc4c(F)c(-c5ccccc5F)c(Cl)cc34)C[C@H]12 [Compound 04-005] | 0% | 0% |  | 0% | 0% |  | 0% |
| Cc1ccc2[nH]ncc2c1-c1cc2ncnc(N3CCC(C(=O)N[C@H]4COC4=O)CC3)c2cc1Cl [Compound 04-022] | 4.6% | 4.1% |  |  | 2.1% |  |  |
| Cc1ccc2[nH]ncc2c1-c1cc2ncnc(N3CCC(C(=O)N[C@@H]4COC4=O)CC3)c2cc1Cl [Compound 04-023] | 1.5% | 2.7% |  |  | 2.1% |  |  |
| CC1(c2cc(NCC(=O)N3CC[C@H]4OC(=O)[C@H]4C3)c(O)cc2Cl)CC1 [Compound 06-092] | 8.0% | 2.4% |  | 0% | 7.4% |  | 8.0% |
| CC1(c2cc(NCC(=O)N3CC[C@H]4C(=O)O[C@H]4C3)c(O)cc2Cl)CC1 [Compound 06-093] | 4.8% | 2.4% |  | 0% | 5.3% |  | 4.8% |
| CC1(c2cc(NCC(=O)N[C@H]3COC3=O)c(O)cc2Cl)CC1 [Compound 06-094] | 0% | 0% |  |  |  |  |  |
| CC1(c2cc(NCC(=O)N[C@@H]3COC3=O)c(O)cc2Cl)CC1 [Compound 06-095] | 0% | 0% |  |  |  |  |  |
| CC1(c2cc(NCC(=O)N3CC[C@H]4OC(=O)[C@@]4(C)C3)c(O)cc2Cl)CC1 [Compound 08-043] | 0% | 0% |  |  | 0% |  | 0% |
| CC1(c2cc(NCC(=O)N3CC[C@@]4(C)C(=O)O[C@H]4C3)c(O)cc2Cl)CC1 [Compound 08-044] | 0% | 0% |  |  | 0% |  | 0% |
| CN1CCC[C@@H]1COc1nc2c(c(N3CC[C@@]4(C)C(=O)O[C@H]4C3)n1)CCN(c1cccc3cccc(Cl)c13)C2 [Compound 12-028] | 0% | 0% |  | 19.0% | 0% |  | 0% |
| CN1CCC[C@@H]1COc1nc2c(c(N3CC[C@H]4OC(=O)[C@@]4(C)C3)n1)CCN(c1cccc3cccc(Cl)c13)C2 [Compound 12-044] | 0% | 0% |  | 0% | 0% |  | 0% |
| CN1CCC[C@@H]1COc1nc2c(c(N3C[C@@H]4OC(=O)[C@@H]4C3)n1)CCN(c1cccc3cccc(Cl)c13)C2 [Compound 12-058] | 6.0% | 5.0% |  | 94.0% | 7.0% |  | 6.0% |
| CN1CCC[C@@H]1COc1nc2c(c(N3CCC4(CC3)CNC4=O)n1)CCN(c1cccc3cccc(Cl)c13)C2 [Compound 12-064] | 0% | 0% |  | 0% | 0% |  | 0% |
| CN1CCC[C@@H]1COc1nc2c(c(N3CCN4C(=O)C[C@H]4C3)n1)CCN(c1cccc3cccc(Cl)c13)C2 [Compound 12-074] | 0% | 0% |  | 0% | 0% |  | 0% |
| CN1CCC[C@@H]1COc1nc2c(c(N3CC[C@H]4C(=O)O[C@H]4C3)n1)CCN(c1cccc3cccc(Cl)c13)C2 [Compound 12-077] | 7.5% | 6.9% |  | 100% | 8.6% |  | 7.5% |
